Laboratory results from PubChem BioAssay (NCI).
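Results reflect a 48-hour exposure of cells in 96-well plates to compound at five concentrations. At the TGI there is no net growth.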

What was measured:
Assay in all cases: NCI tumour cell line growth inhibition, 48 h
NCI-H226 lung = tested on: NCI-H226 lung
COLO 205 colon = tested on: COLO 205 colon
MDA-N = tested on: MDA-N
T-47D breast = tested on: T-47D breast
NCI/ADR-RES ovarian = tested on: NCI/ADR-RES ovarian
LOX IMVI melanoma = tested on: LOX IMVI melanoma
RPMI-8226 leukemia = tested on: RPMI-8226 leukemia
SNB-75 CNS = tested on: SNB-75 CNS

SMILES	TGI (NCI-H226 lung) [µM]	TGI (COLO 205 colon) [µM]	TGI (MDA-N) [µM]	TGI (T-47D breast) [µM]	TGI (NCI/ADR-RES ovarian) [µM]	TGI (LOX IMVI melanoma) [µM]	TGI (RPMI-8226 leukemia) [µM]	TGI (SNB-75 CNS) [µM]
COc1ccc2c(c1)CCC(CN1CCN(CCOC(c3ccc(F)cc3)c3ccc(F)cc3)CC1)C2O (stereo unspecified)	39.8	20.2	29.7	39	25.4	29.8	35.4	32.9
Cc1nc2c(=O)n(C)c(=O)nc-2n(CCO)c1C	> 100	> 100	> 100	> 100	> 100	> 100	> 100	> 100
CCOC(=O)c1c(C)noc1/N=N/N(CCO)CCO	63.5	70.1	> 100	39.7	> 100	> 100	–	46.1
COc1cccc(CCn2c(N)c(C(=O)O)c3ccc([N+](=O)[O-])cc3c2=O)c1	> 100	45.9	> 100	> 100	89.7	> 100	> 100	90.3
CN(C)Cc1cc(C(=O)/C=C/c2ccc(Br)cc2)cc(CN(C)C)c1O	35.9	3.28	9.81	37.9	> 100	5.43	26.8	35.3
OC12CC3c4ccccc4NC3C3Oc4cccc5c4C31CCN(CC1CC1)C2C5 (stereo unspecified)	74.9	39.7	35.1	42.6	47.4	30	48.2	31.5
CC(C)Oc1c(C2(c3ccccc3O)SCCCS2)c(=O)c1=O	> 100	> 100	> 100	> 100	> 100	> 100	–	> 100
CCCC(=O)OCC1(CO)C/C(=C/CC(C(C)C)C(C)C)C(=O)O1 (stereo unspecified)	> 100	> 100	> 100	> 100	> 100	35.8	–	> 100
COC1/C=C\OC2(C)Oc3c(C)c(O)c4c(O)c(c(/C=N\OCCCc5ccccc5)c(O)c4c3C2=O)NC(=O)/C(C)=C\C=C/C(C)C(O)C(C)C(O)C(C)C(OC(C)=O)C1C (stereo unspecified)	7.09	4.12	13	15.6	13.4	10.2	–	8.86
COC(=O)C1=C([C@H]2COC(C)(C)O2)[C@H]2C[C@@H]1[C@@H]1OC(C)(C)O[C@@H]12	> 100	> 100	> 100	> 100	> 100	> 100	> 100	> 100
FC(F)(F)c1ccc2c(c1)nc(Cc1ccc(Cl)c(Cl)c1)n2CC1CCCN2CCCCC12 (stereo unspecified)	90.7	33.5	38.8	> 100	84.7	31.6	> 100	> 100
CCNc1nc(N)c(C(=O)c2cccs2)s1	76	22.8	> 100	84.3	> 100	> 100	–	36.6
C=C1C(=O)CCC1C(=O)O (stereo unspecified)	> 100	> 100	> 100	> 100	> 100	> 100	> 100	> 100
COc1cc(CNc2nc3ccccc3n2Cc2ccccc2)cc(CN2CCOCC2)c1O	82.8	40.1	68.2	> 100	65.6	30.7	> 100	83.9
Cc1cc(C)c(S(=O)(=O)N(CCCCCCN)OCCCN)c(C)c1	86.5	32.3	32.2	37.4	> 100	31.3	> 100	22.8
N#CC(c1ccccc1)N(CCc1ccccc1)C(=O)c1ccccc1 (stereo unspecified)	> 100	> 100	> 100	> 100	> 100	> 100	> 100	57.2
CC(=O)/C(N=Nc1ccc(-n2c(C)nc3ccc(Br)cc3c2=O)cc1)=C(/C)O	> 100	> 100	> 100	> 100	> 100	> 100	> 100	77
O=c1oc2ccccc2cc1-c1csc(Nc2cc(Cl)cc(Cl)c2)n1	> 56.1	> 100	> 100	> 100	> 83.7	7.62	> 100	11.8
C[N+]1(C)CCOC(O)(c2ccccc2)C1 (stereo unspecified)	> 100	> 100	> 100	> 100	> 100	> 100	> 100	> 100

SMILES	TGI (NCI-H226 lung) [µM]	TGI (COLO 205 colon) [µM]	TGI (MDA-N) [µM]	TGI (T-47D breast) [µM]	TGI (NCI/ADR-RES ovarian) [µM]	TGI (LOX IMVI melanoma) [µM]	TGI (RPMI-8226 leukemia) [µM]	TGI (SNB-75 CNS) [µM]
c1ccc(CN2CCCN3CCN(CCCN(Cc4ccccc4)CC3)CC2)cc1	> 100	57.8	> 100	> 100	> 100	> 100	> 100	> 100
O=C1N[C@H]2C(=O)c3c(Cl)sc(Cl)c3[C@H]2O1	> 100	21.3	14.7	29.2	> 71.5	6.97	59.1	30.4
CN(CCCCN1CCCC1)CCCCN(C)C(=O)Cc1ccc(Cl)c(Cl)c1	41.8	27.4	12.2	40.7	> 100	25.2	23.9	32.8
CCOC(=O)CCC(NC(=O)c1ccc(Nc2cnc3cc(C(F)(F)F)ccc3n2)cc1)C(=O)OCC (stereo unspecified)	> 100	> 100	> 100	> 100	> 100	> 100	> 100	5.91
CCOC(=O)CCSS(=O)(=O)C(F)(F)F	> 100	> 100	> 100	> 100	> 100	> 100	> 100	> 100
CC(C)(O)/C=C\P(C)(=O)c1ccccc1 (stereo unspecified)	> 100	> 100	> 100	> 100	> 100	> 100	> 100	> 100
COc1ccc(C2C3=C(COC3=O)OC(C)(C)Oc3cc4c(cc32)OCO4)cc1 (stereo unspecified)	99.2	48.5	8.97	> 87.4	> 81.6	> 86.8	> 100	23
COc1cc(C2=C(C)[C@@H]3CN(CC=C3c3ccc(Cl)cc3)C2)c(S(=O)(=O)O)cc1OC	> 100	> 100	> 100	> 100	> 100	> 100	> 100	> 100
CC(C)(Cl)C(Br)CCC(CBr)=C(Cl)CCl (mixture of isomers)	> 2.46	1.11	3.74	5.33	5.21	3.59	4.39	7.93
CCOC(=O)c1ccc(NC(=O)O/N=C(/Cl)C(C)C)cc1	50.2	5.77	32.4	6.62	37.5	9.65	24.8	27.4
Cc1ccc(/C=N/Nc2cc(C)c3ccccc3n2)s1	52.7	> 100	37.6	> 100	90.6	78.9	29.1	> 100
CC(=O)Nc1ccc(-c2nc3ccccc3s2)cc1Cl	> 100	> 100	> 100	> 100	> 100	> 100	> 100	> 100
COCOc1cc(OC)c(Br)cc1C/C(=N/O)C(=O)OC	> 100	> 100	> 100	70.3	> 100	> 100	–	59.7
CCOC(=O)/C(=C\c1ccnc2ccccc12)P(=O)(OCC)OCC	31.3	4.63	6.74	9.11	5.9	3.43	5.93	12
CS(=O)(=O)N1CC(CCl)c2ccc(NCCN)cc21 (stereo unspecified)	> 100	> 100	> 100	> 100	> 100	> 100	> 100	40.1
CC(=O)/C=C(/C=N/O)c1ccccc1	> 100	> 100	> 100	> 100	> 100	> 100	> 100	> 100
CCOC(=O)NC(Nc1ccc(F)c(F)c1)(C(=O)OCC)C(F)(F)F (stereo unspecified)	> 100	> 100	> 100	> 100	> 100	> 100	> 100	> 100
COC(=O)/C=C\[C@@H]1[C@H](C)N1S(=O)(=O)c1ccc(C)cc1 (stereo partly specified)	> 100	> 100	> 100	> 100	> 100	> 100	> 100	–
O=S(Nc1ccccc1)c1ccc(-c2ccccc2)cc1 (stereo unspecified)	> 100	> 100	> 100	> 100	> 100	> 100	> 100	–
